# Source: US6555113B1, “Modulation of cholesteryl ester transfer protein (CETP) activity” (priority 1995, dated 2003)
# Experiments:
# recombinant human CETP [1] = biological target: T1, recombinant human CETP (Homo sapiens, UniProt P11597); details: in vivo
# [2] = design: species or system New Zealand White Rabbits; details: rabbit, in vivo
# recombinant human CETP [3] = biological target: T1, recombinant human CETP; details: in vivo; remark: listed apart in the source
# recombinant human CETP [4] = biological target: T1, recombinant human CETP; details: in vivo; remark: listed apart in the source
# [5] = design: species or system New Zealand White Rabbits; details: rabbit, in vivo; remark: listed apart in the source
# [6] = test system: aortic atherosclerotic lesions; test: Measurement of aortic atherosclerotic lesions in rabbits, cholesterol-fed model of atherosclerosis; assay type: in vivo, New Zealand White Rabbits
# Protocol: The synthetic vaccine peptide (SEQ ID NO:2) of Example 1 above was injected into New Zealand White Rabbits to test the ability of the vaccine peptide to elicit an immune response against endogenous rabbit CETP and to protect or reduce development of atherosclerosis. Group I contained six rabbits (rb#1-#6), each of which was subjected to a protocol for administration of the vaccine peptide. Control Group II contained six rabbits (rb#7-12) that were vaccinated but not fed a high cholesterol diet. Control Group III contained six rabbits (rb#13-18) that were not vaccinated and not fed a high cholesterol diet. Control Group IV contained six rabbits (rb#19-24) that were not vaccinated but fed a high cholesterol diet. The high cholesterol diet was administered starting four weeks after a final boost with the vaccine and continued for a total of 17 weeks.
# On Day 0, peptide (100 μg) was suspended in the RIBI™ adjuvant system (RIBI ImmunoChem Research, Inc., Hamilton, Mont.) according to manufacturer's instructions to a final volume of […], and each rabbit of Group I and II were injected at two intramuscular sites (250 μl per site), subcutaneously at two sites (100 μl per site), and six intradermal sites (50 μl per site). On Day 28, a boost (100 μg of peptide in RIBI™ adjuvant system) was administered as on Day 0. On Day 49, another boost (100 μg of peptide in RIBI™ adjuvant system) was administered as on Day 0. […]
# Aortas were removed from all surviving rabbits (four in Groups I and IV, five in Group II, six in Group III) after 17 weeks (Day 196 from primary vaccination) on cholesterol supplemented diet in Groups I and IV and control diet (no cholesterol supplement) in Groups II and III. […] The lesions were measured and the data quantitated using a computer program (The Morphometer, Woods Hole Educational Associated, Woods Hole, Mass.).
# T1 sequence (P11597 18-493): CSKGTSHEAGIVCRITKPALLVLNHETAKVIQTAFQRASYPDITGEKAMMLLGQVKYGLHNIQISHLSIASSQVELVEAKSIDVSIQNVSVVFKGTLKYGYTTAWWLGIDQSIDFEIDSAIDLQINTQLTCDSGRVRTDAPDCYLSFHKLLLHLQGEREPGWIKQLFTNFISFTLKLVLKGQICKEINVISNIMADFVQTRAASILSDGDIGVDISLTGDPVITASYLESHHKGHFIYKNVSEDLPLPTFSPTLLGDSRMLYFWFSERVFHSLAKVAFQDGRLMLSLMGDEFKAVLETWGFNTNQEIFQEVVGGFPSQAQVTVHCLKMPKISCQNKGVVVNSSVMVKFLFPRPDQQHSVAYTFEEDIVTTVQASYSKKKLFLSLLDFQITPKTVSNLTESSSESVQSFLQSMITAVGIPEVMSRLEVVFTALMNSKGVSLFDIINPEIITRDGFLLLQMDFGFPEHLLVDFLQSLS
sequence,measurement,setting,value
CQYIKANSKFIGITEFGFPEHLLVDFLQSLS [SEQ ID NO:2],inhibition of TP2 binding to CETP by plasma,recombinant human CETP [1],observed in plasma sample from two of the three rabbits
same,increase in HDL-C concentrations compared to prebleed plasma samples,[2],2 to 5 fold
same,plasma HDL concentrations over time,[2],increasing plasma HDL concentrations over time
same,ratio of Non-HDL/HDL,[2],generally declined
same,total cholesterol in plasma samples,[2],no significant difference
same,titers of anti-CETP antibody by direct ELISA,recombinant human CETP [3],All Group I mice had significant titers
same,anti-CETP antibody that competed with Mab TP2 for binding to recombinant human CETP,recombinant human CETP [4],three of the six mice
same,levels of HDL-C compared to pre-vaccination levels,[5],showed an increase
same,size of atherosclerotic lesions compared to non-vaccinated animals,"[6]; Group I (vaccinated, cholesterol-supplemented diet) vs Group IV, 17 weeks on 0.25% cholesterol diet",statistically significant reduction
same,average total area of the aorta covered by lesions,"[6]; Group I vaccinated animals, 17 weeks on cholesterol supplemented diet, Oil Red O staining",19%
same,reduction of the area of atherosclerotic lesions,"[6]; animals fed cholesterol supplemented diets, vaccinated vs non-vaccinated",greater than 50%
